One test concerns DENV2 strain 16681. Kind of test: Infectious virus (plaque assay) and total virus (qRT-PCR for DENV RNA) secreted from infected MDMΦs. The following applies: serial dilution, 48 h post-infection, normalized to untreated. The class given is cell-based, dengue virus serotype 2. On the procedure:
MDMΦ were infected with DENV2 16681 diluted to a multiplicity of infection (MOI) of 1 in X-VIVO10 without supplements for 90 minutes (20°C, with rocking). Upon removal of virus, fresh MDMΦ growth medium without IL-4 but containing serial dilutions of drug or control was placed on the cells, and cells were incubated for 48 hours (37°C, 5% CO2). For collection of infectious virus, supernatant was harvested and centrifuged for 5 minutes (room temperature, 400 x g) to pellet any cells/debris, and supernatants were aliquoted and stored at -80°C until analysis by plaque assay. […]
Virus titres for samples from human MDMΦ and C6/36 infections were obtained by LLC-MK2 plaque assays as per previous descriptions. […] A second-overlay containing nutrients, low-melting point tissue culture-grade agarose, and neutral red stain [33] was added and allowed to solidify at 20°C before further incubation for 1 day (37°C, 5% CO2) after which plaques were counted by eye. […]
DENV RNA in cell culture supernatants was isolated according to the manufacturer’s protocol for Direct-zol RNA MiniPrep Kit (Zymo Research) and assayed by reverse transcription-real time polymerase chain reaction (qRT-PCR) on an Applied Biosystems 7500 real-time PCR system (Life Technologies). […] Samples were read in technical duplicate and compared to a standard curve generated from high-titer viral RNA isolated from C6/36-grown DENV2. […]
(In general: Real-time PCR tracks product formation cycle by cycle.)

Test [1] has as its target T1, Human lysosome α-galactosidase (Homo sapiens, UniProt P06280).
T1 sequence (P06280 32-429): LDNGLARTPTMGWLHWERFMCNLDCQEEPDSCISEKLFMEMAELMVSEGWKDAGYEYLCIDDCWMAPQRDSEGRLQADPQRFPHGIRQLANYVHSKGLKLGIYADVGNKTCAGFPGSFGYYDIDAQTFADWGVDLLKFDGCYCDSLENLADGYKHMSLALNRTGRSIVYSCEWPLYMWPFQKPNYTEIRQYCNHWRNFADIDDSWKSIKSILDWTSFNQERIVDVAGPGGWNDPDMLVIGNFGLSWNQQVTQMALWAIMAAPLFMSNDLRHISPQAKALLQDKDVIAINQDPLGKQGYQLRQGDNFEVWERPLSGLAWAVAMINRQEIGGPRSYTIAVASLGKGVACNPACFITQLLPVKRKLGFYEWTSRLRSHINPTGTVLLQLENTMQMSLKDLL
Kind of test: In vitro enzyme inhibition. The format is biochemical. The following applies: concentration required to inhibit the enzyme to 50% activity; read-out: IC50.

The source of these data is paper PMC4790851, “Iminosugars Inhibit Dengue Virus Production via Inhibition of ER Alpha-Glucosidases—Not Glycolipid Processing Enzymes” (PLoS Neglected Tropical Diseases, 2016).

As for `CCCC(=O)O[C@H]1CN2CC[C@H](O)[C@@H]2[C@@H](O)[C@@H]1O` [Celgosivir, 6-O-butanoyl-castanospermine], the “infectious virus and total virus secreted” value with DENV2 strain 16681 is “reduces infectious virus (solid lines) and total virus (dashed lines) secreted in a one-to-one ratio”. The IC50 (commonly the concentration that gives 50% inhibition) in test [1] is more than 1000 µM.

`CCCCN1C[C@H](O)[C@@H](O)[C@H](O)[C@H]1CO` [NB-DNJ, N-butyl-DNJ]: in the test with DENV2 strain 16681, the “infectious virus and total virus secreted” value was “reduces infectious virus (solid lines) and total virus (dashed lines) secreted in a one-to-one ratio”.

In the case of `CCCCCCCCCN1C[C@H](O)[C@@H](O)[C@@H](O)[C@H]1CO` [NN-DGJ], the IC50 in test [1] is 35.5 µM.
